Assay results reported in patent US20100144733A1, “Compounds, compositions and methods comprising heteroaromatic derivatives” (Institute for OneWorld Health, priority 2008, published 2010).

Molecular target: T1, CFTR (Homo sapiens, UniProt P13569)
T1 construct: endogenous in cells; host or cells: T84 human colonic cells (ECACC)
Assay: T84 assay (FLIPR membrane potential dye, forskolin/IBMX-stimulated CFTR channel activity)
Assay type: cell-based
Conditions: imidazole and triazole-containing compounds (Tables 13, 14, 14′), read-out: IC50 (μM) (T84 assay)
Procedure, shortened: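 Fluorescence from a membrane potential dye in T84 monolayers (HBSS with 10 mM Hepes) is followed each second for 150 s. Cells are exposed to test compound during the 45 min dye loading, then challenged with forskolin (10 μM) and IBMX (100 μM) to open CFTR. Inhibitors suppress the depolarization-driven fluorescence increase.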

T1 sequence (P13569 whole entry): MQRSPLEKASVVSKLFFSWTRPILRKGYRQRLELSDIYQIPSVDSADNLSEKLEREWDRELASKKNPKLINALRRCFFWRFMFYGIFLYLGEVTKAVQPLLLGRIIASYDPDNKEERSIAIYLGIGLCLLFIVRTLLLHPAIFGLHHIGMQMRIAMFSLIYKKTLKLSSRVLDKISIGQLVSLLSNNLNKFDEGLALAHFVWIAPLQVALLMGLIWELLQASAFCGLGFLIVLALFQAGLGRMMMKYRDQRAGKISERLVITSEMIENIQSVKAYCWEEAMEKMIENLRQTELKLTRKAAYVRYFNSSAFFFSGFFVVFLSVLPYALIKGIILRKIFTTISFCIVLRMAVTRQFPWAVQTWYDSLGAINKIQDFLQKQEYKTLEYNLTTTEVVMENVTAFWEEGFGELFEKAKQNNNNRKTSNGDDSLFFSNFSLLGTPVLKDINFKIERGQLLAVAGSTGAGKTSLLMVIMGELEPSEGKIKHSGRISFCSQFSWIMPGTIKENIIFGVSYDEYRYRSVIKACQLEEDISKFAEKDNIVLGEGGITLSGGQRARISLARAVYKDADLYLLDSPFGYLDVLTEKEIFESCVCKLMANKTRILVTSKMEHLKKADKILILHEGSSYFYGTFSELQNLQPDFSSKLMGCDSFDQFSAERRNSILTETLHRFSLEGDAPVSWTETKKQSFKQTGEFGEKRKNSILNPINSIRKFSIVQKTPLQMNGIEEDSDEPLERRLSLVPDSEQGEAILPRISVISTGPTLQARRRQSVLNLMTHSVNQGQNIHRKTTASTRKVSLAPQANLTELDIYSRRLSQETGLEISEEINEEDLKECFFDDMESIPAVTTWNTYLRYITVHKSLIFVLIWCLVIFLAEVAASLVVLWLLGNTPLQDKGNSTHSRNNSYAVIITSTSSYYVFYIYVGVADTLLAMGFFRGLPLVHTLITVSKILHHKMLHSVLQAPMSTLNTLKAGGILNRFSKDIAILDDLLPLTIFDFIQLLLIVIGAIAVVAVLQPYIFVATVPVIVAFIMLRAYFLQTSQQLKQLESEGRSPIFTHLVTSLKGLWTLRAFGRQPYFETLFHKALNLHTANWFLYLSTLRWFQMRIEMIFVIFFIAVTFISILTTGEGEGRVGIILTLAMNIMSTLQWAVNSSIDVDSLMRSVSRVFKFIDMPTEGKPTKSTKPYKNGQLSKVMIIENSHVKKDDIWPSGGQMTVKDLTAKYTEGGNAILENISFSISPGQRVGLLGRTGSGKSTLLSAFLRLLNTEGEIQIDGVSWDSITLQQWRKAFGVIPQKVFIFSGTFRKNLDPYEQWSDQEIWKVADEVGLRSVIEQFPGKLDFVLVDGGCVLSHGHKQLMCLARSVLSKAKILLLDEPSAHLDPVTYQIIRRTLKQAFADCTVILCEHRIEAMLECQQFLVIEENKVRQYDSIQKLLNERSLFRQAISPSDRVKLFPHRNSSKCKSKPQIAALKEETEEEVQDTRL

IC50 [µM] | Compound
18.1 | CN(Cc1ccc(Cl)cc1)C(=O)c1ncn(-c2cc(Cl)c(O)c(Cl)c2)n1 [22i, N-(4-chlorobenzyl)-1-(3,5-dichloro-4-hydroxyphenyl)-N-methyl-1H-1,2,4-triazole-3-carboxamide]
28.6 | O=C(NCc1cccc(-n2cccn2)c1)c1ncn(-c2cc(Cl)c(O)c(Cl)c2)n1 [46i]
26.7 | O=C(c1ccccc1)C1CCN(C(=O)c2ncn(-c3cc(Cl)c(O)c(Cl)c3)n2)CC1 [61i, (4-benzoylpiperidin-1-yl)(1-(3,5-dichloro-4-hydroxyphenyl)-1H-1,2,4-triazol-3-yl)methanone]

Same assay, conditions: oxadiazole-containing compounds (a series), average of at least 2 runs unless annotated n = 1, read-out: IC50

Compound | IC50 [µM]
O=C(c1nc(-c2cc(Cl)c(O)c(Cl)c2)no1)N(Cc1cccnc1)Cc1cccnc1 [162a, 3-(3,5-dichloro-4-hydroxyphenyl)-N,N-bis(pyridin-3-ylmethyl)-1,2,4-oxadiazole-5-carboxamide] | 9.24
CN(C(=O)c1nc(-c2cc(Br)c(O)c(Br)c2)no1)c1ccc(OC(F)(F)F)cc1 [3a, 3-(3,5-dibromo-4-hydroxyphenyl)-N-methyl-N-(4(trifluoromethoxy)phenyl)-1,2,4-oxadiazole-5-carboxamide] | 2.62
O=C(Nc1ccc(Oc2ccccc2)cc1)c1nc(-c2cc(Br)c(O)c(Br)c2)no1 [104a, 3-(3,5-dibromo-4-hydroxyphenyl)-N-(4-phenoxyphenyl)-1,2,4-oxadiazole-5-carboxamide] | 23
O=C(c1nc(-c2cc(Cl)c(O)c(Cl)c2)no1)N(CCO)Cc1ccccc1 [121a, N-benzyl-3-(3,5-dichloro-4-hydroxyphenyl)-N-(2-hydroxyethyl)-1,2,4-oxadiazole-5-carboxamide] | 19.2
CN(C)c1ccc(Oc2ccc(CNC(=O)c3nc(-c4cc(Cl)c(O)c(Cl)c4)no3)cc2)cc1 [197a, 3-(3,5-dichloro-4-hydroxyphenyl)-N-(4-(4-(dimethylamino)phenoxy)benzyl)-1,2,4-oxadiazole-5-carboxamide] | 7.76
COc1ccc(Oc2ccc(CNC(=O)c3nc(-c4cc(Cl)c(O)c(Cl)c4)no3)cc2)cc1F [183a, 3-(3,5-dichloro-4-hydroxyphenyl)-N-(4-(3-fluoro-4-methoxyphenoxy)benzyl)-1,2,4-oxadiazole-5-carboxamide] | 11.7
CN(Cc1cccc(-c2ncccn2)c1)C(=O)c1nc(-c2cc(Cl)c(O)c(Cl)c2)no1 [176a, 3-(3,5-dichloro-4-hydroxyphenyl)-N-methyl-N-(3-(pyrimidin-2-yl)benzyl)-1,2,4-oxadiazole-5-carboxamide] | 24.6
CN(Cc1cccc(Oc2ccccc2)c1)C(=O)c1nc(-c2cc(Cl)c(O)c(Cl)c2)no1 [144a, 3-(3,5-dichloro-4-hydroxyphenyl)-N-methyl-N-(3-phenoxybenzyl)-1,2,4-oxadiazole-5-carboxamide] | 6.33

Next, values leading:

IC50 [µM] | Compound
11 | O=C(NCc1ccc(Oc2cccc(OC(F)(F)F)c2)cc1)c1nc(-c2cc(Cl)c(O)c(Cl)c2)no1 [190a, 3-(3,5-dichloro-4-hydroxyphenyl)-N-(4-(3-(trifluoromethoxy)phenoxy)benzyl)-1,2,4-oxadiazole-5-carboxamide]
10.9 | O=C(c1nc(-c2cc(Br)c(O)c(Br)c2)no1)N(Cc1cccc(C(F)(F)F)c1)Cc1cccc(C(F)(F)F)c1 [21a, 3-(3,5-dibromo-4-hydroxyphenyl)-N,N-bis(3-(trifluoromethyl)benzyl)-1,2,4-oxadiazole-5-carboxamide]
14.6 | O=C(NCc1ccc(C(F)(F)F)cc1F)c1nc(-c2cc(Cl)c(O)c(Cl)c2)no1 [124a, 3-(3,5-dichloro-4-hydroxyphenyl)-N-(2-fluoro-4-(trifluoromethyl)benzyl)-1,2,4-oxadiazole-5-carboxamide]
15.7 | O=C(NCc1cc(F)ccc1F)c1noc(-c2cc(Cl)c(O)c(Cl)c2)n1 [113a, 5-(3,5-dichloro-4-hydroxyphenyl)-N-(2,5-difluorobenzyl)-1,2,4-oxadiazole-3-carboxamide]

Same assay, conditions: thiadiazole-containing compounds (Table 12), read-out: IC50

IC50 [µM] | Compound
17.6 | Oc1c(Cl)cc(-c2nnc(Cc3ccsc3)s2)cc1Cl [6h, 2,6-dichloro-4-(5-(thiophen-3-ylmethyl)-1,3,4-thiadiazol-2-yl)phenol]
